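How tested: cells in 96-well plates exposed to compound for 48 hours at five concentrations. The concentration for full growth arrest is given as TGI.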
Key:
Assay in all cases: NCI tumour cell line growth inhibition, 48 h
UO-31 renal = system: UO-31 renal
LOX IMVI melanoma = system: LOX IMVI melanoma
A498 renal = system: A498 renal
PC-3 prostate = system: PC-3 prostate
A549 NSCLC = system: A549 NSCLC
DU-145 prostate = system: DU-145 prostate
MDA-N = system: MDA-N
SK-MEL-28 melanoma = system: SK-MEL-28 melanoma
SF-268 CNS = system: SF-268 CNS
SF-539 CNS = system: SF-539 CNS
IGROV1 ovarian = system: IGROV1 ovarian
SW-620 colon = system: SW-620 colon
KM12 colon = system: KM12 colon
NCI-H23 lung = system: NCI-H23 lung
HS 578T breast = system: HS 578T breast
MCF7 breast = system: MCF7 breast
U251 CNS = system: U251 CNS
MALME-3M melanoma = system: MALME-3M melanoma
SK-OV-3 ovarian = system: SK-OV-3 ovarian
SN12C renal = system: SN12C renal
OVCAR-8 ovarian = system: OVCAR-8 ovarian
TK-10 renal = system: TK-10 renal
HT29 colon = system: HT29 colon
MDA-MB-231 breast = system: MDA-MB-231 breast
HCT-15 colon = system: HCT-15 colon
M14 melanoma = system: M14 melanoma
EKVX NSCLC = system: EKVX NSCLC
HCC-2998 colon = system: HCC-2998 colon
SF-295 CNS = system: SF-295 CNS
NCI-H226 lung = system: NCI-H226 lung
MOLT-4 leukemia = system: MOLT-4 leukemia
HCT-116 colon = system: HCT-116 colon
MDA-MB-435 = system: MDA-MB-435
K-562 leukemia = system: K-562 leukemia
UACC-62 melanoma = system: UACC-62 melanoma
HOP-92 NSCLC = system: HOP-92 NSCLC
786-0 renal = system: 786-0 renal
SNB-19 CNS = system: SNB-19 CNS
NCI-H522 lung = system: NCI-H522 lung
COLO 205 colon = system: COLO 205 colon
NCI-H460 lung = system: NCI-H460 lung
HL-60(TB) leukemia = system: HL-60(TB) leukemia
SK-MEL-2 melanoma = system: SK-MEL-2 melanoma
RPMI-8226 leukemia = system: RPMI-8226 leukemia
SK-MEL-5 melanoma = system: SK-MEL-5 melanoma
T-47D breast = system: T-47D breast
SR leukemia = system: SR leukemia
HOP-62 NSCLC = system: HOP-62 NSCLC
CAKI-1 renal = system: CAKI-1 renal
UACC-257 melanoma = system: UACC-257 melanoma
OVCAR-3 ovarian = system: OVCAR-3 ovarian
OVCAR-4 ovarian = system: OVCAR-4 ovarian
OVCAR-5 ovarian = system: OVCAR-5 ovarian
NCI/ADR-RES ovarian = system: NCI/ADR-RES ovarian
RXF 393 renal = system: RXF 393 renal
ACHN renal = system: ACHN renal
CCRF-CEM leukemia = system: CCRF-CEM leukemia
SNB-75 CNS = system: SNB-75 CNS

Measured: TGI

OC1CCCCCCCCCCC1SCCCCl (configuration not stated)
not listed: CCRF-CEM leukemia | SNB-75 CNS
> 100 µM: all other assays above

C=CCNC(=S)/N=C\C(C(=O)OCC)=C(/O)C(=O)OCC
not listed: A498 renal | TK-10 renal | HOP-92 NSCLC
> 100 µM: all other assays above

CC(C)CC(NC(=O)C(Cc1ccccc1)NC(=O)[C@H]1CC[C@H](NC(=O)C(Cc2ccc(OC(C)(C)C)cc2)NC(=O)OC(C)(C)C)C1)C(N)=O (some centres not stated)
27.5 µM: HCC-2998 colon
36 µM: OVCAR-8 ovarian
59 µM: HOP-92 NSCLC
41.8 µM: UACC-62 melanoma
35.1 µM: LOX IMVI melanoma
28.2 µM: HCT-116 colon
47.9 µM: K-562 leukemia
53.9 µM: SNB-19 CNS
20.1 µM: SK-MEL-5 melanoma
58 µM: OVCAR-3 ovarian
51.5 µM: SK-MEL-28 melanoma
31.9 µM: MCF7 breast
46.9 µM: T-47D breast
59.3 µM: PC-3 prostate
35.8 µM: HS 578T breast | COLO 205 colon
77.8 µM: IGROV1 ovarian
41.1 µM: MDA-N
37 µM: UACC-257 melanoma
83.5 µM: SF-295 CNS
39.7 µM: NCI-H460 lung
53.6 µM: MOLT-4 leukemia
42.6 µM: SF-539 CNS
33.7 µM: M14 melanoma | NCI-H522 lung
43.3 µM: CCRF-CEM leukemia
86.9 µM: TK-10 renal
94.3 µM: SW-620 colon
97 µM: MDA-MB-231 breast
28.6 µM: U251 CNS
45.2 µM: NCI-H226 lung
41.2 µM: MDA-MB-435
31.4 µM: NCI-H23 lung
31.5 µM: SN12C renal
46.2 µM: HT29 colon
61 µM: MALME-3M melanoma
44.1 µM: KM12 colon
34.8 µM: SK-MEL-2 melanoma
48.9 µM: HCT-15 colon
not listed: DU-145 prostate
> 100 µM: all other assays above

C=CC1(c2ccc(-c3ccccc3)cc2)OCCO1
86.4 µM: CCRF-CEM leukemia
89.8 µM: NCI-H23 lung
64.1 µM: NCI-H226 lung
89.1 µM: UACC-62 melanoma
53.7 µM: SK-MEL-2 melanoma
88.6 µM: RXF 393 renal
84.6 µM: SR leukemia
87.1 µM: HOP-92 NSCLC
69 µM: HS 578T breast
61.9 µM: K-562 leukemia
81.2 µM: HT29 colon
not listed: A498 renal | HL-60(TB) leukemia | CAKI-1 renal
> 100 µM: all other assays above

COP(=O)(OC)/C(=C/c1cn(C(C)=O)c2ccccc12)NC(C)=O
66.2 µM: OVCAR-3 ovarian
66.4 µM: HCT-15 colon
42.6 µM: HL-60(TB) leukemia
45.3 µM: RPMI-8226 leukemia
36.3 µM: MDA-N
58.3 µM: CCRF-CEM leukemia
41.9 µM: LOX IMVI melanoma
94.3 µM: A498 renal
not listed: UO-31 renal | SF-268 CNS | SF-539 CNS | KM12 colon | MALME-3M melanoma | EKVX NSCLC | HCC-2998 colon | NCI-H226 lung | MOLT-4 leukemia | UACC-62 melanoma | HOP-92 NSCLC | 786-0 renal | SNB-19 CNS | RXF 393 renal
> 100 µM: all other assays above
